Measured values from patent publication US20140148498A1, “METHODS AND COMPOSITIONS FOR THE TREATMENT OF MARFAN SYNDROME AND ASSOCIATED DISORDERS” (THE JOHNS HOPKINS UNIVERSITY, priority 2011, published 2014).
“Also recorded” adds a separate entry of the source.

Legend:
[1] = test system: Fbn1^C1039G/+ mice; assay: Aortic root growth by echocardiography, 7 months of treatment (Examples 3-5); format: in vivo; conditions: for Final absolute aortic root diameter: 7 months of treatment, mean +/- 2 SEM
Method: (§1) A head-to-head comparison of ACEi versus ARBs was performed. Fbn1^C1039G/+ mice and WT littermates were treated with hemodynamically equivalent doses (FIG. 8) of either the ACEi enalapril (10 to 15 mg/kg of body weight per day) or the ARB losartan (40 to 60 mg/kg per day) (R. D. Patten et al., Clin. Sci 104, 109 (2003)), beginning at 8 weeks of age, and were assessed with serial echocardiograms. […] It is noteworthy that losartan reduced aortic root growth in Fbn1^C1039G/+ mice, but had no effect in WT littermates (P=0.27). […] Whether AT2 signaling is needed to achieve losartan's full therapeutic benefit was assessed. AT2KO:Fbn1^C1039G/+ mice were treated with losartan from 8 weeks of age and followed by serial echocardiography until they were killed at 9 months of age (FIG. 2C).
(§2) All mice were cared for under strict compliance with the Animal Care and Use Committee of the Johns Hopkins University School of Medicine. The Fbn1^C1039G/+ and AT2KO lines were maintained n a pure C57BL/6 background (backcrossed for greater than 9 generations), allowing for valid comparisons. In order to further accommodate the potential for temporal- or background-specified variation, all comparisons were made between contemporary littermates when possible. The AT21C0 mice were obtained as a generous gift from Dr. Inagami (T. Ichiki et al., Nature 377, 748 (1995)). The Agtr2 gene resides on the X chromosome and therefore we used either male mice carrying the mutated allele (who are hemizygous) or homozygous females, both of which have been previously shown to be functionally null for the AT2 receptor (T. Ichiki et al., Nature 377, 748 (1995)). Mice were sacrificed with an inhalation overdose of halothane (Sigma-Aldrich, St. Louis). Mice underwent immediate laparotomy, descending abdominal aortic transection, and PBS (pH 7.4) was infused through the right and left ventricles to flush out the blood. Mice that were analyzed for Western Blot analysis had their proximal ascending aortas (root to right brachiocephalic trunk) immediately dissected out, flash frozen in liquid nitrogen and stored at −80d until further processing. Mice that were analyzed for aortic histology had latex injected under low pressure into the left ventricular apex until it was visible in the descending abdominal aorta. Mice that were analyzed for lung histology had their trachea intubated with a 20-gauge blunted needle, and 0.5% agar was infused under a low and constant pressure to gradually inflate the lungs. The trachea was then tied-off using vicryl and the needle was removed. Mice were fixed for 24 hours in 10% buffered formalin, after which the heart, aorta and lungs were removed and stored in 70% ethanol.
(§3) Mice were started on medication at 8 weeks of age and continued for 7 months. Losartan was dissolved in drinking water and filtered to reach a concentration of 0.6 g/L, giving an estimated daily dose of 40-60 mg/kg/day. Enalapril was dissolved in drinking water and filtered to reach a final concentration of 0.15 g/L, giving an estimated daily dose of 10-15 mg/kg/day. […] Spironolactone was dissolved in drinking water and filtered to give an estimated dose of 20 mg/kg/day, a dose previously shown to have in-vivo phenotypic benefit in cardiovascular disease states (S. Sakurabayashi-Kitade et al., Atherosclerosis 206, 54 (2009)). Placebo-treated animals received regular drinking water. Blood pressures were analyzed by taking 20 tail cuff blood pressures per day over 5 days in each mouse to habituate the mice to the tail cuff pressure system, and the blood pressures obtained on the last day were averaged. At least 4 mice for each treatment group were analyzed.
Nair hair removal cream was used on all mice the day prior to echocardiograms. All echocardiograms were performed on awake, unsedated mice using the Visualsonics Vevo 660 V1.3.6 imaging system and a 30 MHz transducer. Mice were imaged at baseline, 1 month after treatment and then every two months until the time of sacrifice. […]

[2] = test system: WT mice; assay: Aortic root growth by echocardiography, 7 months of treatment, WT littermates; format: in vivo
Method: as §1, with “AT2KO:Fbn1^C1039G/+ mice were treated with losartan from 8 weeks of age and followed by serial echocardiography until they were killed at 9 months of age (FIG. 2C).” left out
All mice were cared for under strict compliance with the Animal Care and Use Committee of the Johns Hopkins University School of Medicine. […] Mice that were analyzed for Western Blot analysis had their proximal ascending aortas (root to right brachiocephalic trunk) immediately dissected out, flash frozen in liquid nitrogen and stored at −80d until further processing. Mice that were analyzed for aortic histology had latex injected under low pressure into the left ventricular apex until it was visible in the descending abdominal aorta. Mice that were analyzed for lung histology had their trachea intubated with a 20-gauge blunted needle, and 0.5% agar was infused under a low and constant pressure to gradually inflate the lungs. […]

[3] = test system: AT2KO:Fbn1^C1039G/+ mice; assay: Systolic blood pressure by tail cuff, MFS mice lacking AT2; format: in vivo; conditions: AT2KO:Fbn1^C1039G/+ versus Fbn1^C1039G/+ mice, FIG. 8
Method: as §3

[4] = test system: ERK1/2; assay: Western blot of aortic root and proximal ascending aorta: ERK1/2 activation (Examples 4-5); format: in vivo, mice
Text: as §2, with “The trachea was then tied-off using vicryl and the needle was removed. Mice were fixed for 24 hours in 10% buffered formalin, after which the heart, aorta and lungs were removed and stored in 70% ethanol.” left out
(§4) Mouse aortic root and ascending aortas (aortic root excluding the aortic valve to origin of right brachiocephalic trunk) were harvested, snap-frozen in liquid nitrogen and stored at −80° C. until processed. […] Equal protein loading of samples was determined by a protein assay (BioRad, CA), and confirmed by probing with antibodies against β-Actin or GAPDH (Sigma, Mo.). […]

[5] = test system: Smad2; assay: Western blot of aortic root and proximal ascending aorta: Smad2 activation (Examples 4-5); format: in vivo, mice
Text: as §2
Mouse aortic root and ascending aortas (aortic root excluding the aortic valve to origin of right brachiocephalic trunk) were harvested, snap-frozen in liquid nitrogen and stored at −80° C. until processed. Protein was extracted using the reagents and protocol from a Total Protein Extraction Kit containing protease inhibitor and Protein Phosphatase Inhibitor Cocktail (Millipore, MA). Aortas were homogenized using a pellet pestle motor (Kimble-Kontes, NJ) as per the extraction kit protocol. […] Equal protein loading of samples was determined by a protein assay (BioRad, CA), and confirmed by probing with antibodies against β-Actin or GAPDH (Sigma, Mo.). […] Blots were then washed in PBS-T, developed using SuperSignalWest HRP substrate (Pierce Scientific, IL), exposed to BioMax Scientific Imaging Film (Sigma, Mo.) and quantified using Imaged analysis software (NIH, MD).

[6] = test system: JNK1; assay: Western blot of proximal ascending aorta: JNK1 activation (Examples 4-5); format: in vivo, mice
Text: as §2, with “The trachea was then tied-off using vicryl and the needle was removed. Mice were fixed for 24 hours in 10% buffered formalin, after which the heart, aorta and lungs were removed and stored in 70% ethanol.” left out
as §4

[7] = treated AT2KO:Fbn1^C1039G/+ versus treated Fbn1^C1039G/+ mice, FIG. 14

## CCCCc1nc(Cl)c(CO)n1Cc1ccc(-c2ccccc2-c2nn[nH]n2)cc1 [losartan]
[1]; FIG. 2B
  Final absolute aortic root diameter: 1.96+/−0.09 mm
[1]; FIG. 2C
  Final absolute aortic root diameter: 1.96+/−0.09 mm
[1]; versus placebo, drug in drinking water from 8 weeks of age
  Aortic root growth over 7 months of treatment: significant regression in growth; also recorded: regression in aortic size
[2]; WT littermates
  Aortic root growth over 7 months of treatment: had no effect
[2]; WT mice, 7 months of treatment, FIG. 2B, mean +/- 2 SEM
  Final absolute aortic root diameter: 1.77+/−0.15 mm
[3]
  Systolic blood pressure: no difference in blood pressure between the groups; also recorded: lowered blood pressure equally
[4]; AT2KO:Fbn1^C1039G/+ mice, FIG. 10C and 14
  ERK1/2 activation: ability to inhibit ERK1/2 activation is lost; also recorded: reduced ability to lower ERK1/2 activation; also recorded: loses its ability to decrease ERK1/2 activation
[4]; Fbn1^C1039G/+ mice, FIG. 10B
  ERK1/2 activation: reduced it to WT levels; also recorded: reduced ERK1/2 activation to levels indistinguishable from WT littermates
[5]; Fbn1^C1039G/+ mice, FIG. 10B
  Smad2 activation: significantly decreased Smad2 activation
[5]; [7]
  Smad2 activation: no significant change; also recorded: no significant difference
[6]; Fbn1^C1039G/+ mice, FIG. 13
  JNK1 activation: small reduction in JNK1 activation; also recorded: modest reduction in JNK1 activation
[6]; [7]
  JNK1 activation: no significant change; also recorded: no significant difference
